Laboratory results taken from patent US11932604B1, “9-(2-hydroxyphenyl)-10-[3-(dimethylamino)propyl]- 3,4,6,7,9,10-hexahydroacridine-1,8(2H,5H)-dione as an antimicrobial compound” (KING FAISAL UNIVERSITY, priority 2023, dated 2024).

Experiments:
Conditions in all cases: after 10, 20, 40 and 60 minutes at all dilutions 1:100 to 1:800
Ps. Aeruginosa = test: Antimicrobial activity by agar dilution, Ps. Aeruginosa; assay type: cell-based, Pseudomonas aeruginosa
Method: (§1) The antimicrobial properties of the synthesized compound 9-(2-hydroxyphenyl)-10-[3-(dimethylamino)propyl]-3,4,6,7,9,10-hexahydroacridine-1,8(2H,5H)-dione were studied by the method of agar dilution. Test solutions of each compound were prepared in a concentration of 1% using dimethylformamide as a solvent. Then they were diluted in a physiological solution to obtain the final experimental dilutions 1:100, 1:200, 1:400, and 1:800. The effect of these substances were compared with furacillin in a controllable study. The testing microbes used were gram positive bacteria St. Aereus, gram negative bacteria E. Coli and Ps. Aeruginosa, and Candida albicans fungi. The experiments used for this survey were meat-pentonlu agar (EPA) for cultivation of bacteria and Saburo environment for fungi. Each experiment used 1 ml of test solution on each plate 500 min. Add 2 drops of emulsified with microbes feel. All experimental samples were taken from the agar after 10, 20, 40, 60 minutes in the environment on the basis of Patrk planted. Bacteria were cultivated at a temperature of 37° C. for 1 day and the mushroom was kept in a thermostat for […] at a temperature of 28° C. Then the results were checked.

St. Aereus = test: Antimicrobial activity by agar dilution, St. Aereus; assay type: cell-based, Staphylococcus aureus
Method: as §1

Candida albicans = test: Antimicrobial activity by agar dilution, Candida albicans; assay type: cell-based
Method: as §1

E. Coli = test: Antimicrobial activity by agar dilution, E. Coli; assay type: cell-based, Escherichia coli
Method: as §1

CN(C)CCCN1C2=C(C(=O)CCC2)C(c2ccccc2O)C2=C1CCCC2=O [9-(2-hydroxyphenyl)-10-[3-(dimethylamino)propyl]-3,4,6,7,9,10-hexahydroacridine-1,8(2H,5H)-dione]
highest inhibition activity: inhibition activity, Ps. Aeruginosa (Ps. Aeruginosa) | inhibition activity, St. Aereus (St. Aereus) | inhibition activity, Candida albicans (Candida albicans) | inhibition activity, E. Coli (E. Coli)
